Some test systems named below: ACHN; BT-549; CCRF-CEM; HOP-62; HT-29; Hs-578T; MDA-MB-435; Malme-3M; NCI-H23; NCI-H522; NCI/ADR-RES; OVCAR-4; SK-MEL-2; SR; U-251; UACC-257; HCC 2998; RXF 393; HOP-92.
What all share (assay): NCI-60 cell line screen, 48 h

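Cells were grown in 96-well plates and exposed to each compound for 48 hours at five concentrations; endpoints were interpolated linearly between bracketing concentrations, or set to the highest concentration if not reached. Abbreviation: GI50, concentration required for 50% inhibition of growth.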 Activity calls are given as the source filed them. Rule as the data show it: active = GI50 up to about 1.1 µM and inactive = higher.

Take `Cc1cn([C@H]2C[C@H](O)[C@@H](CO)O2)c(=O)nc1N`: the GI50 in the assay with ACHN, with BT-549, in the assay with CCRF-CEM, with HOP-62, in the assay with HT-29 and with Hs-578T was > 100 µM (inactive) throughout. Moreover, the GI50 with MDA-MB-435, in the assay on Malme-3M, in the assay on NCI-H23, in the assay on NCI-H522, in the assay with NCI/ADR-RES and in the assay on OVCAR-4 was > 100 µM (inactive) throughout. The GI50 with SK-MEL-2, with SR, in the assay on U-251 and in the assay on UACC-257 was > 100 µM (inactive) throughout.
`C=CCCC1(CC(Sc2ccccc2)P(=O)(c2ccccc2)c2ccccc2)OCCO1` (stereo unspecified): the GI50 in the assay with ACHN, with BT-549, in the assay on CCRF-CEM, in the assay on HCC 2998, with HOP-62 and in the assay on HT-29 was > 10 µM (inactive) throughout. Besides, the GI50 with Hs-578T, in the assay with MDA-MB-435, with Malme-3M, with NCI-H23, in the assay with NCI/ADR-RES and with OVCAR-4 was > 10 µM (inactive) throughout. In addition, the GI50 with RXF 393, in the assay on SK-MEL-2, with SR, in the assay on U-251 and in the assay on UACC-257 was > 10 µM (inactive) throughout.
As to `CCCCCCCCCCCCCCCCCCOC(COP(=O)(O)OCC1OC(n2cc(F)c(=O)[nH]c2=O)CC1O)COP(=O)(O)OCC1OC(n2ccc(N)nc2=O)C(O)C1O` (stereo unspecified), the GI50 in the assay with ACHN was 0.474 µM (active); with BT-549 it was 18.5 µM (inactive); with CCRF-CEM, 4.81 µM (inactive); in the assay with HCC 2998 it was 0.419 µM (active); in the assay on HOP-62 it was 1.95 µM (inactive); with HT-29, 18.2 µM (inactive). The GI50 in the assay with Hs-578T was > 100 µM (inactive); with MDA-MB-435, 19.5 µM (inactive); with Malme-3M, > 68.9 µM (inactive); in the assay on NCI-H23, 7.98 µM (inactive); with NCI-H522 it was > 40.2 µM (inactive); in the assay on NCI/ADR-RES, 6.49 µM (inactive). Also, the GI50 in the assay on OVCAR-4 was 47.1 µM (inactive); in the assay with RXF 393 it was 16.4 µM (inactive); in the assay on SK-MEL-2, > 67 µM (inactive); in the assay with SR, 0.925 µM (active); in the assay with U-251 it was 7.13 µM (inactive); in the assay with UACC-257, > 79.3 µM (inactive).
Turning to `O=c1c2cc([N+](=O)[O-])ccc2n2n1Cc1ccccc1CC2`, the GI50 with ACHN, with BT-549, with CCRF-CEM, in the assay with HCC 2998, with HOP-62 and with HT-29 was > 100 µM (inactive) throughout. For the same compound, the GI50 in the assay on Hs-578T is 74.8 µM (inactive); in the assay with MDA-MB-435 it was > 100 µM (inactive); in the assay with Malme-3M, > 100 µM (inactive); in the assay with NCI-H23 it was > 100 µM (inactive); in the assay on NCI-H522, > 100 µM (inactive); with NCI/ADR-RES, > 100 µM (inactive). Further, the GI50 in the assay with OVCAR-4, with RXF 393, in the assay on SK-MEL-2, with SR, in the assay with U-251 and in the assay with UACC-257 was > 100 µM (inactive) in each case.
For the compound `CC1=NNC(=O)[C@H]2[C@H]1CCC1[C@@H]2CC[C@]2(C)[C@@H](O)CC[C@@H]12` (stereo partly specified), the GI50 with ACHN, in the assay with BT-549, with CCRF-CEM, in the assay on HCC 2998, in the assay with HOP-62 and with HOP-92 was > 100 µM (inactive) in each case. Moreover, the GI50 in the assay on HT-29, in the assay with Hs-578T, in the assay with MDA-MB-435, in the assay on Malme-3M, with NCI-H23 and in the assay with NCI-H522 was > 100 µM (inactive) each time. For the same compound, the GI50 in the assay on NCI/ADR-RES, in the assay with OVCAR-4, with RXF 393, in the assay with SK-MEL-2, in the assay on U-251 and in the assay on UACC-257 was > 100 µM (inactive) throughout.
As to `OC(CCN1CCN(CCOC(c2ccccc2)c2ccccc2)CC1)c1ccc(Br)cc1` (stereo unspecified), the GI50 was 10.8 µM (inactive) with ACHN; 13.3 µM (inactive) with BT-549; 12.7 µM (inactive) in the assay on CCRF-CEM; 1.73 µM (inactive) with HCC 2998; 15.1 µM (inactive) in the assay on HOP-62; 10.7 µM (inactive) in the assay on HOP-92. Further, the GI50 in the assay on HT-29 was 4.27 µM (inactive); in the assay with Hs-578T, 16 µM (inactive); with MDA-MB-435, 11 µM (inactive); in the assay with Malme-3M, 11.7 µM (inactive); with NCI-H23, 14 µM (inactive); in the assay on NCI-H522 it was 14.3 µM (inactive). For the same compound, the GI50 is 8.36 µM (inactive) in the assay with NCI/ADR-RES; 12.6 µM (inactive) in the assay on OVCAR-4; 9.38 µM (inactive) in the assay with RXF 393; 12.3 µM (inactive) in the assay on SK-MEL-2; 11.9 µM (inactive) with U-251; 3.47 µM (inactive) in the assay on UACC-257.
In the case of `CC(=O)OC(Cc1cc(C=C(C(F)(F)F)C(F)(F)F)cc(C)n1)(C(F)(F)F)C(F)(F)F`, the GI50 is 1.39 µM (inactive) in the assay with ACHN; 1.77 µM (inactive) in the assay on BT-549; 0.217 µM (active) in the assay with CCRF-CEM; 5.2 µM (inactive) in the assay with HCC 2998; 1.79 µM (inactive) in the assay with HOP-62; 0.55 µM (active) in the assay with HT-29. For the same compound, the GI50 with Hs-578T was 1.95 µM (inactive); with MDA-MB-435, 1.48 µM (inactive); in the assay on Malme-3M, 2.48 µM (inactive); with NCI-H23, 1.45 µM (inactive); with NCI-H522, 2.01 µM (inactive); with NCI/ADR-RES, 2.28 µM (inactive). The GI50 was 1.72 µM (inactive) in the assay with OVCAR-4; 0.855 µM (active) in the assay on RXF 393; 2.1 µM (inactive) in the assay on SK-MEL-2; 0.352 µM (active) in the assay on SR; 1.55 µM (inactive) in the assay on U-251; 1.74 µM (inactive) in the assay on UACC-257.
Take `CN(CCN1CCCC1)C1CCc2cc(Cl)c(Cl)cc2C1` (stereo unspecified): the GI50 in the assay on ACHN is 16.9 µM (inactive); in the assay with BT-549, 14.9 µM (inactive); with CCRF-CEM, 26.4 µM (inactive); in the assay on HCC 2998, 5.47 µM (inactive); in the assay with HOP-62, 17.4 µM (inactive); in the assay with HT-29, 10.4 µM (inactive). Besides, the GI50 with Hs-578T is 29.9 µM (inactive); in the assay on MDA-MB-435 it was 14.4 µM (inactive); in the assay on Malme-3M, 18.9 µM (inactive); in the assay with NCI-H23 it was 15 µM (inactive); in the assay on NCI-H522 it was 17.2 µM (inactive); in the assay with NCI/ADR-RES, 12.4 µM (inactive). In addition, the GI50 in the assay on OVCAR-4 was 21.4 µM (inactive); in the assay with SK-MEL-2, 17.9 µM (inactive); in the assay on SR it was 20.5 µM (inactive); with U-251 it was 16.1 µM (inactive); with UACC-257, 16.4 µM (inactive).
`CCSC1=N/C(=C\c2ccc(N(C)C)cc2)C(Cl)=N1`: the GI50 with ACHN, in the assay with BT-549, in the assay on CCRF-CEM, in the assay with HCC 2998, with HOP-62 and in the assay with HOP-92 was > 100 µM (inactive) throughout. For the same compound, the GI50 in the assay with HT-29, in the assay on Hs-578T, in the assay on MDA-MB-435, with Malme-3M, in the assay on NCI-H23 and in the assay on NCI-H522 was > 100 µM (inactive) each time. Moreover, the GI50 was > 100 µM (inactive) in the assay on NCI/ADR-RES; > 100 µM (inactive) with OVCAR-4; 25.2 µM (inactive) in the assay on RXF 393; > 100 µM (inactive) with SK-MEL-2; > 100 µM (inactive) in the assay with U-251; > 100 µM (inactive) with UACC-257.
As to `Cc1cc(OC(=O)Nc2cccc3ccccc23)c(C(C)C)cc1C(=S)Nc1ccccc1`, the GI50 is 24.2 µM (inactive) in the assay with ACHN; 12.1 µM (inactive) in the assay on BT-549; 7.6 µM (inactive) in the assay with CCRF-CEM; 20.6 µM (inactive) in the assay with HCC 2998; 16.6 µM (inactive) with HOP-62; 18.7 µM (inactive) in the assay on HT-29. In addition, the GI50 was 12.3 µM (inactive) in the assay on Hs-578T; 18.1 µM (inactive) with MDA-MB-435; 17.3 µM (inactive) in the assay on Malme-3M; 15.7 µM (inactive) with NCI-H23; 14.1 µM (inactive) in the assay with NCI-H522; 16.6 µM (inactive) in the assay with NCI/ADR-RES. Besides, the GI50 in the assay with OVCAR-4 is 11 µM (inactive); in the assay on SK-MEL-2 it was 13.7 µM (inactive); in the assay with SR, 6.49 µM (inactive); with U-251 it was 18.1 µM (inactive); in the assay with UACC-257, 18.7 µM (inactive).
In the case of `CCC(C)N1CN(c2ccccc2)C2(CCN(CCCC(=O)c3ccc(F)cc3)CC2)C1=O` (stereo unspecified), the GI50 is 1.68 µM (inactive) with ACHN; 13.1 µM (inactive) in the assay on BT-549; 0.64 µM (active) in the assay on CCRF-CEM; 1.87 µM (inactive) with HOP-62; 0.429 µM (active) in the assay on HT-29; 13.7 µM (inactive) with Hs-578T. The GI50 in the assay with MDA-MB-435 is 13.9 µM (inactive); in the assay on Malme-3M it was 14.7 µM (inactive); with NCI-H23 it was 3.57 µM (inactive); in the assay with NCI-H522, 7.85 µM (inactive); with NCI/ADR-RES, 83 µM (inactive); with OVCAR-4 it was 3.03 µM (inactive). Also, the GI50 with RXF 393 was 14.2 µM (inactive); in the assay on SK-MEL-2, 14.9 µM (inactive); in the assay with SR, 5.98 µM (inactive); in the assay on U-251 it was 4.47 µM (inactive).

The values are drawn from ChEMBL document CHEMBL1201862, “PubChem BioAssay data set” (2004).
